From patent US12351834B2, “Compositions and methods for the treatment of ornithine transcarbamylase deficiency” (Arcturus Therapeutics, Inc., priority 2020, dated 2025) come the findings set out here.

Data set [1] in a line: In vivo tissue lipid clearance in Balb/c mice. On the set-up: species or system mouse. Conditions: for Tmax / half-life / concentration at 28 days: Balb/c, mouse; for ranking of lipid level by tissue / time post-dose by which lipid no longer detected in plasma: single IV bolus 1 mg/kg of the lipid formulation; for concentration at 28 days: 28 days post-dose. The protocol:
Additional studies were conducted to evaluate the in vivo tissue clearance profile of Lipid #7 and Lipid #3 in Balb/c mice. The clearance profiles in mouse tissue and plasma can be found in FIG. 25 (for Lipid #7) and FIG. 26 (for Lipid #3). All animals received a single intravenous bolus treatment of 1 mg/kg of the Lipid #7 formulation at a dosing volume of 10 mL/kg. Plasma, liver, kidney, and spleen were collected from mice (n=3 mice per timepoint) at 0, 2, 15, 30 minutes; 1, 2, 4, 6, 8, 12, 24, 48 hours; and 5, 7, 21, 28 days post-dose. All samples were analyzed for Lipid #7 concentrations.
All animals received a single intravenous bolus treatment of 1 mg/kg of the Lipid #3 formulation at a dosing volume of 10 mL/kg. Plasma was collected from mice (n=3 per timepoint) at 0.25, 1, 2, 4, 6, 12, 24, 120, and 168 hours post-dose. Liver, kidney, and spleen were collected from mice (n=3 per timepoint) at 0.033, 0.25, 1, 2, 4, 6, 12, 24, 120, and 168 hours; 1, 2, 3, 4-weeks post-dose. Heart, brain and lungs were collected from mice (n=3 per timepoint) at 0.25 hours; 1, 2-weeks post-dose. Only samples from 0.25 hrs to 1-week post-dose were analyzed for Lipid #3 tissue concentrations.

Data set [2] has as its system Spf/ash mice. The data set can be described thus: Urinary orotate levels in Spf/ash mice. The data set is classed as in vivo, mouse. Conditions: 1 mg/kg and 3 mg/kg IV. On the procedure: Spf/ash mice received an IV injection with either PBS or lipid-formulated OTC-mRNA construct 1799.7 (5MeOU chemistry) at three different doses: 0.3 mg/kg, 1 mg/kg and 3 mg/kg. Urinary orotate levels were determined in untreated wild-type (WT) and both untreated and treated Spf/ash mice. A urinary orotate time course was performed in Spf/ash and WT mice, and urinary orotate levels were measured at each timepoint. The results can be seen in FIG. 12. Urinary orotate was normalized to creatinine, which is represented in the graph on the y-axis throughout the time course and served as a proof-of-concept of functional restoration of OTC activity post-injection.
Spf/ash mice received an IV injection with either PBS or lipid-formulated (as described in Example 1) OTC-mRNA at 1 mg/kg and 3 mg/kg. WT mice were included as an internal control. Urinary orotate levels were measured at 0, 1, 3, 7 and 14 days, and levels were normalized to creatinine (FIG. 16).

Data set [3] deals with Spf/ash mice. The data set can be described thus: Western Blot of mitochondrial and cytosolic liver fractions of Spf/ash mice. The class given is in vivo, mouse. On the procedure:
Spf/ash mice received an IV injection with either PBS or lipid-formulated (as described in Example 1) OTC-mRNAs at 1 mg/kg and 3 mg/kg. WT mice were used as internal controls. Livers were harvested from the mice and sample fractionation was performed on the liver samples, separating the cytosolic and mitochondrial fractions. OTC levels were measured by Western Blot (WB) using human specific (hOTC) and crossreactive (crOTC) antibodies (FIG. 14). […] (CoxIV) was used as a mitochondrial control. OTC protein expression levels were measured by near-infrared fluorescent imaging systems and normalized to total protein.
Spf/ash mice received an IV injection with either PBS or lipid-formulated OTC-mRNAs at 3 mg/kg. WT mice were used as internal controls. Sample fractionation was performed on liver samples harvested from the mice, separating the cytosolic and mitochondrial fractions. OTC levels were measured by Western Blot using a human specific antibody. OTC protein expression levels were measured by near-infrared fluorescent imaging systems and both fractions, normalized to total protein, were plotted (FIG. 15). […] The 2260 compound includes a modified mitochondrial signaling peptide sequence provided herein.
(Immunoblotting shows a protein as a band on a membrane.)

The mark [4] stands for this setting: kidney, 1 mg/kg IV, read-out: half-life, kidney (converted).
Setting [5] is: liver, 1 mg/kg IV, read-out: half-life, liver (converted).
[6] abbreviates: plasma, 1 mg/kg IV, read-out: half-life, plasma (converted).

Read-outs that look alike come from different tables or passages of the source.

For `CCCCCC/C=C\COC(=O)CCCCCN(CCCCCC(=O)OC(CCCCCCC)CCCCCCC)C(=O)SCCN(C)C` [Lipid #3], the tissue clearance assessment entry in data set [1] (1 mg/kg IV) is recorded as “rapid tissue clearance”. Moreover, the “detection in brain tissue” value in data set [1] (1 mg/kg IV, either time point post-dose) is on record as “not detected in brain tissue”. For the same molecule, in data set [1] (1 mg/kg IV, close to LLOQ), the “time post-dose through which concentrations persisted, all other tissues” value came to 120 h. Also, in data set [1] (1 mg/kg IV, close to LLOQ), the “time post-dose through which concentrations persisted, liver” value was 168 h. The Tmax (commonly the time at which the peak concentration occurs) in data set [1] (kidney, 1 mg/kg IV, read-out: Tmax, kidney) is 0.033 to 1 h; in data set [1] (liver, 1 mg/kg IV, read-out: Tmax, liver), 0.033 to 1 h; in data set [1] (spleen, 1 mg/kg IV, read-out: Tmax, spleen), 1 to 2 h. Also, the half-life – broadly, how long it takes for the measured level to halve – in data set [1] (setting [4]) was 1140 min; in data set [1] (setting [5]), 1320 min; in data set [1] (setting [6]), 27 min; in data set [1] (spleen, 1 mg/kg IV, read-out: half-life, spleen (converted)) it was 1440 min. Moreover, the “ranking of lipid level by tissue” value in data set [1] was “liver>plasma>spleen>kidney>lung>heart>brain”. The “time post-dose by which lipid no longer detected in plasma” value in data set [1] was not above 4 h.
Turning to `CCCCCCCC(CCCCCCC)OC(=O)CCCN(CCCC(=O)OC(CCCCCCC)CCCCCCC)C(=O)SCCCN(C)C` [Lipid #7], the half-life in data set [1] (setting [4]) was 14000 min; in data set [1] (setting [5]) it was 5040 min; in data set [1] (setting [6]), 3420 min. Also, the concentration at 28 days turned out to be 2.34 ng/mL in data set [1] (kidney, 1 mg/kg IV, read-out: lipid concentration in the kidney); 17.2 ng/mL in data set [1] (liver, 1 mg/kg IV, read-out: lipid concentration in the liver); 18.4 ng/mL in data set [1] (spleen, 1 mg/kg IV, read-out: lipid concentration in the spleen). The “ranking of lipid level by tissue” value in data set [1] was “liver>spleen>plasma>kidney”. Besides, the “time post-dose by which lipid no longer detected in plasma” value in data set [1] was not above 336 h.

B1: Construct 2260: mRNA construct, SEQ ID NO: 251, encodes modified human OTC protein of SEQ ID NO: 4 (nucleic acid)
sense: AGGAUUAUUACAUCAAAACAAAAAGCCGCCACCAUGCUGGUAUUCAACCUGCGCAUCCUGCUGAACAACGCCGCCUUCCGCAACGGCCACAACUUCAUGGUGCGCAACUUCCGCUGCGGCCAGCCCCUGCAGAACCGGGUGCAGCUGAAGGGCCGCGACCUGCUGACCCUGAAGAACUUCACCGGCGAGGAGAUCCGGUACAUGCUGUGGCUGAGCGCCGACCUGAAGUUCCGCAUCAAGCAGAAGGGCGAGUACCUGCCCCUGCUGCAGGGCAAGAGCCUGGGCAUGAUCUUCGAGAAGCGCAGCACCCGCACCCGCCUGAGCACCGAGACAGGCUUCGCCCUGCUGGGCGGCCACCCCUGCUUCCUGACCACCCAGGACAUCCACCUGGGCGUGAACGAGAGCCUGACCGACACCGCCCGCGUGCUGAGCAGCAUGGCCGACGCCGUGCUGGCCCGCGUGUACAAGCAGAGCGACCUGGACACCCUGGCCAAGGAGGCCAGCAUCCCCAUCAUCAACGGCCUGAGCGACCUGUACCACCCCAUCCAGAUCCUGGCCGACUACCUGACCCUGCAGGAGCACUACAGCAGCCUGAAGGGCCUGACCCUGAGCUGGAUCGGCGACGGCAACAACAUCCUGCACAGCAUCAUGAUGAGCGCCGCCAAGUUCGGCAUGCACCUGCAGGCCGCCACCCCCAAGGGCUACGAGCCCGACGCCAGCGUGACCAAGCUGGCCGAGCAGUACGCCAAGGAGAACGGCACCAAGCUGCUGCUGACCAACGACCCCCUGGAGGCCGCCCACGGCGGCAACGUGCUGAUCACCGACACCUGGAUCAGCAUGGGCCAGGAGGAGGAGAAGAAGAAGCGCCUGCAGGCCUUCCAGGGCUACCAGGUGACCAUGAAGACCGCCAAGGUGGCCGCCAGCGACUGGACCUUCCUGCACUGCCUGCCCCGCAAGCCCGAGGAGGUGGACGACGAGGUGUUCUACAGCCCCCGCAGCCUGGUGUUCCCCGAGGCCGAGAACCGCAAGUGGACCAUCAUGGCCGUGAUGGUGAGCCUGCUGACCGACUACAGCCCCCAGCUGCAGAAGCCCAAGUUCUGAGGUCUCUAGUAAUGAGCUGGAGCCUCGGUAGCCGUUCCUCCUGCCCGCUGGGCCUCCCAACGGGCCCUCCUCCCCUCCUUGCACCGGCCCUUCCUGGUCUUUGAAUAAAGUCUGAGUGGGCAGCAUCUAG
On to B1, for which the “dose dependence of urinary orotate reduction” value in the data set on Spf/ash mice [2] is “dose-dependent manner”. Besides, the “duration of reduced urinary orotate levels” value in the data set with Spf/ash mice [2] (measured at 0, 1, 3, 7 and 14 days) is on record as “up to 14 days”. For the same molecule, the “targeting of expressed OTC to the mitochondria” value in the data set with Spf/ash mice [3] (1 mg/kg and 3 mg/kg IV, liver fractions) is “can efficiently target the mitochondria”. Further, the “human OTC protein level in mitochondrial fraction” value with Spf/ash mice [3] (3 mg/kg IV, liver, normalized to total protein) is recorded as “delivers more human OTC than 2016 in the mitochondria”.
